# Experimental data from patent publication US4540682A, “Pharmaceutical peptides, preparation, use and intermediates” (Burroughs Wellcome Co., priority 1983, dated 1985).
# Tests used:
# Male mice (CFLP strain) = assay: Hotplate test; format: in vivo; settings: subcutaneous; test repeated 15 mins. after treatment; as free peptide where appropriate; NE = no effect
# From the text: (§1) (1) Both the hotplate test (Woolfe and MacDonald, J. Pharmacol. Exp. Ther. 80: 300, 1944) and the irritant-induced writhing (stretch) test (Vander Wende and Margolin, Fed. Proc. 15: 494, 1956) are standard in the art for the investigation of analgesic activity. Whereas it is believed that the pain in the latter can be ameliorated either centrally or peripherally, it is thought that that induced in the hotplate test is affected only at the central level.
# Male mice (CFLP strain, Hacking and Churchill) were individually placed in a copper-bottomed perspex box suspended in a water bath at 55° C. and observed for signs of discomfort such as shaking or licking the paws, the reaction time (up to a maximum of 30 secs.) being recorded. Groups of five animals then received either a test compound or saline vehicle (0.85%) control by subcutaneous injection, the test being repeated at 15 mins. after treatment. The ED50 figures for the test compounds were calculated from the number of animals having a posttreatment reaction time which was twice the pretreatment figure.
# female CD1 mice = assay: Irritant-induced writhing test, phenylbenzoquinone (PBQ); format: in vivo; settings: Mus musculus, po, 0.5 h; p.o.; *test compound administered 30 min. prior to PBQ; read-out: (B) Writhing PBQ ED50 p.o.
# From the text: as §1
# (ii) Phenylbenzoquinone (PBQ). This test was carried out in a parallel manner to that employing acetic acid, except that the period over which the writhing/stretching movements were counted began 10 mins. after administration of the PBQ irritant, the latter being given at a dosage of 2.5 mg/kg and in a dose volume of 10 ml/kg. The ED50 figures for the test compounds were calculated, using linear regression analysis, as the dose in the presence of which only half the number of writhes/stretches was induced compared with the controls.
SMILES,(A) Hotplate ED50 (Male mice (CFLP strain)),ED50 (female CD1 mice)
COc1ccc2c(c1)c(CC(=O)O)c(C)n2C(=O)c1ccc(Cl)cc1 [Indomethacin],NE @ 100,–
CC(C)=CCN1CCC2(C)c3cc(O)ccc3CC1C2C (stereo not drawn) [Pentazocine],NE @ 100,–
CN1CC[C@]23c4c5ccc(O)c4O[C@H]2[C@@H](O)C=C[C@H]3[C@H]1C5 [Morphine],–,3.5 mg/kg
